In patent US20070178532A1 (priority 2003, published 2007):

Tests used:
[1] = system: tetramer-positive T cells from PBMC of HAM/TSP patients; assay: CD27 and CD45RA expression in HLA-GFP-acquiring tetramer-positive T cells after peptide presentation by HmyA2GFP cells; assay type: cell-based, human
[2] = system: tetramer-positive T cells from PBMC of HAM/TSP patients; assay: intracellular perforin staining of tetramer-positive T cells (FACS); assay type: cell-based, human
Experimental: The above-described phenotypically defined T cell populations were further characterized with respect to perforin expression and cytolytic activity. For intracellular perforin staining, cells were fixed and permeabilization with Cytofix/CytoPerm kit (BD Pharmingen), and stained with monoclonal antibody specific for perforin (BD Pharmingen). The cells were subjected to further FACS analysis and the resulting data was analyzed with Cellquest software (Becton Dickinson) to obtain the mean fluorescence intensity (MFI) for the cell populations.

PBMCs = assay: peptide loaded HLA-A*201 tetramer analysis of PBMCs (FACS); conditions: PBMC of HAM/TSP patient #5
CD8+ T cells in PBMCs = assay: HLA-GFP acquisition by CD8+ T cells in PBMCs mixed with peptide-pulsed HmyA2GFP cells (FACS); conditions: PBMC of HAM/TSP patient #5
[3] = CMV tetramer-positive cells, After contact with HmyA2GFP cells (1 hour)
[4] = HLA-GFP-acquiring tetramer-positive cells after stimulation with peptide-pulsed HmyA2GFP cells

NLVPMVATV [CMV pp65] was tested, and the “% CD27+ CD4SRA−” value [1, 3] was 2.51%, the “% CD27+ CD45RA+” value [1, 3] was 3.05% and the “% CD27− CD45RA+” value [1, 3] was 42.625%. For the same sequence, the “% CD27− CD45RA−” value [1, 3] was 51.813%, the “change of CD27+CD45RA− (memory) subset” value [1, 4] was “concomitant decrease” and the “change of CD27-CD45+ (effector) subset” value [1, 4] was “no significant change”. For the same sequence, the “change of CD27-CD45RA− (effector/memory) subset” value [1, 4] was “significant increase”, the “Perforin Expression Levels (in MFI)” value ([2]; HLA acquiring CMV tetramer-positive cells) was 9.543 MFI and the “change in the amount of perforin in virus-specific T cells after peptide stimulation” value ([2]; after stimulation with peptide-pulsed HmyA2GFP cells) was “significant decrease”. For the same sequence, the “peptide-specific T cells in the PBMCs by tetramer” value (PBMCs) was 6.57% and the “frequency of peptide-specific T cells in the PBMC population by the inventive method” value (CD8+ T cells in PBMCs) was 6.34%.
